# Laboratory results taken from ChEMBL document CHEMBL1126831, “A structure-activity study of four dopamine D-1 and D-2 receptor antagonists, representing the phenylindan, -indene, and -indole structural classes of compounds” (J Med Chem, 1993).
# Molecular target: D(1A) dopamine receptor (Rattus norvegicus, UniProt P18901)
# Experiment: Binding affinity towards dopamine receptor D1 by displacement of [3H]-SCH- radioligand in rat striatal membranes
# Format: cell membranes, Membrane
# Sequence of D(1A) dopamine receptor (P18901 whole entry): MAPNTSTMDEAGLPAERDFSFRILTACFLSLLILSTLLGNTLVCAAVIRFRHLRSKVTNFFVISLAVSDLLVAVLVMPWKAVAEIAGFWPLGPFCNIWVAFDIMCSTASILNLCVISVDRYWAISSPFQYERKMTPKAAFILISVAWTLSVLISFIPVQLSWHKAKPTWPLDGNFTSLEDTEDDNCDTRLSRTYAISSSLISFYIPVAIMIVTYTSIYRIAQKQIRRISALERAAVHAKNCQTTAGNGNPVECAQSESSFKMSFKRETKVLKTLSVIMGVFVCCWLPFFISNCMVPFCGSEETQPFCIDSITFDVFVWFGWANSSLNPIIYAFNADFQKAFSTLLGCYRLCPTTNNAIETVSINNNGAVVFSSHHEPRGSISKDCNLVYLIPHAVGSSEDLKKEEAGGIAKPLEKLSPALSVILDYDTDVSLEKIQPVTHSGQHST
row,Structure (SMILES),IC50
1,CN1CC=C(c2cn(-c3ccc(F)cc3)c3ccc(Cl)cc23)CC1,0.0098 µM
2,CN1CCC(C2=CC(c3ccc(F)cc3)c3ccc(Cl)cc32)CC1 (stereo not drawn),0.012 µM
3,CN1CCN(C2CC(c3ccc(F)cc3)c3ccc(Cl)cc32)CC1 (stereo not drawn),0.0095 µM
4,CN1CC=C(C2=CC(c3ccc(F)cc3)c3ccc(Cl)cc32)CC1 (stereo not drawn),0.023 µM
5,OCCN1CCN([C@@H]2C[C@@H](c3ccc(F)cc3)c3ccc(C(F)(F)F)cc32)CC1 [TEFLUDAZINE],0.019 µM

# Molecular target: D(2) dopamine receptor (Rattus norvegicus, UniProt P61169)
# Experiment: Binding affinity towardst dopamine D2 receptor by displacement of [3H]-SPI radioligand in rat striatal membranes
# Format: cell membranes, Membrane
# Sequence of D(2) dopamine receptor (P61169 whole entry): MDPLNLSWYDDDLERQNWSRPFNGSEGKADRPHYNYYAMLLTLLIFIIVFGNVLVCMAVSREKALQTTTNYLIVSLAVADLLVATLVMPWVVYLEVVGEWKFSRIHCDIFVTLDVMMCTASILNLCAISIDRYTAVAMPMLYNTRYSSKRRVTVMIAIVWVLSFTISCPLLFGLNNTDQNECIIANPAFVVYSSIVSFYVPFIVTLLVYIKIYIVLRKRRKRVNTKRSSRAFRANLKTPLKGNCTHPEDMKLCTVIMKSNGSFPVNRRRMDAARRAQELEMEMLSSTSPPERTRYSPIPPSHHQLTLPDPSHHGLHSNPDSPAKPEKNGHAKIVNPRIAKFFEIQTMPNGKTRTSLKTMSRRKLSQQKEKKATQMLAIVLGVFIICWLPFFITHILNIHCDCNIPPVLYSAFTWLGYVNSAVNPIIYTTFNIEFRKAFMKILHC
row,Structure (SMILES),IC50
1,CN1CCC(C2=CC(c3ccc(F)cc3)c3ccc(Cl)cc32)CC1 (stereo not drawn),0.019 µM
2,CN1CCN(C2CC(c3ccc(F)cc3)c3ccc(Cl)cc32)CC1 (stereo not drawn),0.012 µM
3,CN1CC=C(C2=CC(c3ccc(F)cc3)c3ccc(Cl)cc32)CC1 (stereo not drawn),0.0051 µM
